Experimental data taken from patent publication US20250360171A1, “CHEMOGENETICALLY GATED ION CHANNELS AND USE THEREOF” (TECHNION RESEARCH & DEVELOPMENT FOUNDATION LIMITED, priority 2023, published 2025).

Assays:
[1] = test system: PSAM4-5HT3-hiPSC-CCS; assay: Optical mapping of PSAM4-5HT3-hiPSC-CCS tissue model; type: cell-based, human; settings: 5-30 nM
Description: To assess the translational potential of these findings, a hiPSC-derived cardiac cell-sheet (hiPSC-CCS) tissue model generated from PSAM4-5HT3-hiPSC-CMs was utilized (FIG. 3A). […] This augmented automaticity was the result of Varenicline-induced depolarizing currents in pacemaker cells driving activity of the cultures.

[2] = test system: PSAM4-5HT3-hiPSC-CMs / control hiPSC-CMs co-culture; assay: Co-culture of PSAM4-5HT3-cGFP-hiPSC-CMs beside control hiPSC-CMs, optical mapping; type: cell-based, human
Experimental: We next created a co-culture model where the PSAM4-5HT3-cGFP-hiPSC-CMs were seeded beside control hiPSC-CMs (FIG. 4A).
Next, it was tested whether this chemogenetic approach could suppress tissue automaticity and excitability when using higher concentrations of Varenicline (100 nM), as it did in single cells, albeit at lower concentration. This dosing discrepancy probably stems from the more limited drug diffusion and the presence of stronger electrotonic coupling (attenuating Varenicline-induced depolarization) at the tissue level.

[3] = test system: control unmodified hiPSC-CMs; assay: Patch-clamp of control unmodified hiPSC-CMs; type: cell-based, human
Experimental: At higher doses (10 nM), spontaneous generation of action potentials (Aps) ceased (FIG. 2B). This suppression of excitability likely results from the significant membrane diastolic depolarization (−64±7 mV to −10±4 mV; p<0.0001; FIG. 2C) due to the large Varenicline-induced inward current (−6.8±3.2 pA/pF; p<0.01; FIG. 2C).

[4] = molecular target: T1, PSAM4-5HT3-HC channel (Homo sapiens, UniProt P36544, L131G/M226I/Q139L/T225I/Y217F); assay: Voltage-clamp / membrane potential recordings of PSAM4-5HT3-HC-expressing hiPSC-CMs; type: cell-based; settings: for effect on Varenicline-induced depolarizing current: picrotoxin 100 uM, partial antagonist of 5HT3-IPD
T1 construct: expressed in transfected cells
Description: The synthetic chemogenetic channel PSAM4-5HT3-HC was created by fusing a mutated α7-nicotinic acetylcholine receptor (PSAM4, engineered to bind the anti-smoking drug Varenicline at sub-therapeutic concentrations) with the ion pore-domain (IPD) of the serotonin receptor 3A (5HT3) with additional mutations made for high conductance (HC) (SEQ ID NO: 12). This molecule was disclosed in Magnus, et al., “Ultrapotent chemogenetics for research and potential clinical applications”, Science, 2019 April 12;364 (6436), hercin incorporated by reference in its entirety. This molecule has only ever been used in neurons; however, it was hypothesized that it could also be employed in other electrically active cells. Specifically, it was hypothesized that expressing this chemogenetic channel in cardiomyocytes would permit dose-dependent modulation of their excitable properties; with weak depolarizing currents leading to increased automaticity, and larger currents causing depolarization-induced electrical silencing.
To test these hypotheses, healthy-donor human induced pluripotent stem cells (hiPSCs) were transfected with a non-viral, randomly integrating, transposon to create a stably engineered line constitutively expressing the PSAM4-5HT3-HC channel together with cGFP (FIG. 1).

[5] = test system: rat hearts transplanted with chemogenetic hiPSC-CMs; assay: Optical mapping of Langendorff-perfused rat hearts engrafted with chemogenetic hiPSC-CMs; type: in vivo; settings: 30 nM, adenosine-induced bradycardia, 7-10 days after transplantation, ex-vivo perfusion
Description: (§1) Finally, chemogenetic hiPSC-CMs were transplanted into rat hearts. After 7-10 days, hearts were harvested, perfused ex-vivo using a custom-made Langendorff apparatus and optically mapped. Bradycardia was induced using adenosine.

[6] = test system: control (non-transplanted) rat hearts; assay: Optical mapping of Langendorff-perfused control (non-transplanted) rat hearts; type: in vivo; settings: four control hearts, 30 nM with adenosine
Description: as §1

[7] = test system: control, non-transfected, hiPSC-CCSs; assay: Optical mapping of control, non-transfected hiPSC-CCSs; type: cell-based, human; settings: any dose
[8] = test system: native CMs; assay: Coculture model: native (wild type) CMs; type: cell-based, human; settings: 2-5 nM
Description: (§2) To further illustrate the potential of this technology a coculture model of wild type CMs and CMs engineered to express the compound channel was generated (FIG. 8). In this model, only the CMs in the CCS between the two wild-type CCSs express the compound channel that is responsive to CNO. Reentrant arrhythmias were induced that spanned the whole model. […] As such, the arrhythmia became relegated to a single side of the model. That is an arrhythmia with a core in one CCS (for example the right one) become relegate to just that CCS upon application of CNO, while the other (left) CCS remained unaffected. It was further shown that the left CCS could be electrically paced, and conduction was successful until the wave front reaches the unexcitable engineered CMs. […] Thus, it is clear that native CMs are unaffected by CNO, but the genetically engineered CMs can be robustly ‘silenced’ by the application of CNO at very low concentrations (2-5 nM). Further, arrhythmias are succinctly terminated as a result of this silencing. Upon washout normal electrical activity resumed in the engineered CMs.

[9] = test system: CMs engineered to express the compound channel; assay: Coculture model: engineered CCS between two wild-type CCSs, reentrant arrhythmia; type: cell-based, human; settings: 5 nM
Description: as §2

[10] = test system: cardiac cell sheets expressing SthK and Rm3D; assay: Reentrant arrhythmia in cardiac cell sheets expressing SthK and Rm3D, optical mapping; type: cell-based, human
Description: In order to express both the DREADD and the channel in the membrane of cardiomyocytes a vector encoding a single transcript was generated. The open reading frame for SthK was cloned downstream of the chicken B-actin promoter. Instead of a stop codon, at the end of SthK a P2A cleavable peptide was encoded followed by the Rm3D receptor in frame. The result is a reading frame (SEQ ID NO: 4) encoding an 874 amino acid construct (SEQ ID NO: 8) that is co-translationally cleaved near the end of the P2A peptide to produce separate SthK and Rm3D proteins from a single transcript.
Cardiac cell sheets (CCSs) were generated as a 2D tissue model from the transfected iPSC-CMs and the CCSs were loaded with an optical voltage-dependent dye and mapped using a high-speed EMCCD camera. […] Reentrant arrhythmias were induced by transient tachypacing, and the resultant arrhythmias were stable within the tissue (FIG. 7A). […] This was seen as an inability to excite the cells even with significant electrical stimulation. […] Furthermore, it was shown that a single washout of the drug led to rapid recovery of electrical excitability by electrical pacing (within 30-90 seconds of washout) and the spontaneous resumption of a normal rhythm (sinus) within 2-5 minutes, as would be expected after defibrillation/cardioversion (FIG. 7C). Thus, the arrythmias were successfully terminated upon application of CNO, and normal electrical activity returned almost immediately after washout.

T1 sequence (P36544 with tags, fused parts or gaps L131G/Q139L/Y217F/T225I/M226I): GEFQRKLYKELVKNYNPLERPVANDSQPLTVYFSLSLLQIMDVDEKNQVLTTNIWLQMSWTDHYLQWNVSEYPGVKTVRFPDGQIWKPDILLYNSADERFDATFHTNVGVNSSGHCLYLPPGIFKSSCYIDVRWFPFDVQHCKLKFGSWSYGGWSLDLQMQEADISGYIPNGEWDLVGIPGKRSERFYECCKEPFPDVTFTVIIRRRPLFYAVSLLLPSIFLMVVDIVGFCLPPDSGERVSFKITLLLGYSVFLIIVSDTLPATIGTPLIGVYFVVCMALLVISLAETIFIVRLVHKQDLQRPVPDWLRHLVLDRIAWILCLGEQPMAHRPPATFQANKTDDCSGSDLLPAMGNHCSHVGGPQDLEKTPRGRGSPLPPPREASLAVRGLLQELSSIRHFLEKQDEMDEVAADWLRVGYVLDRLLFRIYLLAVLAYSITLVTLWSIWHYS

In the case of `c1cnc2cc3c(cc2n1)[C@@H]1CNC[C@H]3C1` [Varenicline], the “cultures' activation frequency” value [1] is reported as “dose-dependent increase”, the “excitability of the region containing non-transfected cells” value ([2]; 100 nM) is reported as “retained its excitable properties” and the “spontaneous activity of the co-cultures” value ([2]; 100 nM) is reported as “significantly slowed”. For the same compound, the “electrical activity in the PSAM4-5HT3-hiPSC-CMs area” value ([2]; 100 nM, in some specimens) was “complete silencing of electrical activity”, the “origin of spontaneous activity (pacemaker area)” value ([2]; baseline origin in control tissue) was “shifted the pacemaker area to the PSAM4-5HT3-HC tissue” and the automaticity of co-culture ([2]; escalating doses) was “augmented automaticity in a dose-dependent manner”. The “increase of spontaneous rhythm over baseline” value ([2]; rhythm arising from the PSAM4-5HT3-hiPSC-CMs) was over 6 fold, the “response to Varenicline” value [3] was “No response” and the “spontaneous generation of action potentials” value ([4]; 10 nM) was “ceased”. The “membrane diastolic potential after Varenicline” value ([4]; depolarization from −64±7 mV, p<0.0001, 10 nM (FIG. 2)) was −10±4 mV, the Varenicline-induced inward current ([4]; p<0.01, FIG. 2C) was −6.8±3.2 pA/pF and the Varenicline-induced depolarizing currents ([4]; voltage-clamp, even at low concentrations (1 nM)) was “robust Varenicline-induced depolarizing currents”. For the same compound, the “hearts developing ectopic ventricular activity from area of cell transplantation” value [5] was “four out of five”, the “shift in the activation pattern” value [6] was “did not occur” and the chronotropic effects [7] was “no chronotropic effects”.

In the case of picrotoxin, the “effect on Varenicline-induced depolarizing current” value [4] is reported as “suppressing the depolarizing current” and the “effect on Varenicline-induced depolarizing current” value ([4]; listed as Picrotoxin) is reported as “partially reversed”.

`C[N+]1([O-])CCN(C2=Nc3cc(Cl)ccc3Nc3ccccc32)CC1` [CNO, clozapine-N-oxide] was tested, and the “effect on native CMs” value [8] was “unaffected”, the “conduction of arrhythmia across engineered cells” value [9] was “could no longer cross the engineered cells” and the “electrical activity of the CCS” value ([10]; 2-5 nM) was “rapid inactivation (silencing)”. The “termination of existing reentrant arrhythmias” value ([10]; 2-5 nM) was “sufficient to completely terminate existing arrhythmias”, the “time to recovery of electrical excitability by electrical pacing after washout” value ([10]; single washout) was 30 to 90 s and the “time to spontaneous resumption of a normal rhythm (sinus) after washout” value ([10]; single washout) was 2 to 5 min.
